Drawing on PubChem BioAssay AID588589 (The Scripps Research Institute Molecular Screening Center, 2011), this text covers inhibition for 92 molecules.

Active and inactive are the calls of the source. The rule behind the calls is not given here.

The test deals with Fam108b (ABHD17B) [Mus musculus], recombinant soluble. Put plainly: inhibition of soluble recombinant Fam108b, SAR follow-up, biochemical, gel-based ABPP, soluble form (AID 588589). The settings on record: fluorophosphonate probe, at 5 µM, hits give high values.

In general, inhibition refers to the percentage by which the read-out fell short of the control. In the case of `O=C1CCC(=O)N1c1ccc(-c2nc3scc(-c4cccs4)c3c(=O)o2)cc1`, the inhibition was 0% (inactive).

Consider `Cc1ccc(-c2nc3scc(-c4ccc(Br)cc4)c3c(=O)o2)cc1`, for which the inhibition was 0% (inactive). Take `O=c1oc(-c2ccco2)nc2c1cnn2-c1ccccc1`: the inhibition was 50% (inactive). To `O=c1oc(-c2ccccc2F)nc2scc(-c3ccc(Br)cc3)c12` belongs 50% (inactive); to `Cc1nc2c(oc3ccccc32)c(=O)o1`, 25% (inactive). To `O=c1oc(-c2ccccn2)nc2ccccc12` belongs 45% (inactive); to `Cc1ccccc1-c1nc2scc(-c3ccc(Br)cc3)c2c(=O)o1`, 0% (inactive).

Turning to `CC(C)(C)c1ccc(-c2nc3scc(-c4cccs4)c3c(=O)o2)cc1`, the inhibition is 0% (inactive). To `Cc1nsc2nc(-c3cc(S(=O)(=O)N(C)Cc4ccccc4)ccc3Cl)oc(=O)c12` belongs 30% (inactive); to `COc1ccc(-c2csc3nc(-c4ccccc4Br)oc(=O)c23)cc1`, 0% (inactive). The same measure for `Cc1nsc2nc(-c3cc(Cl)ccc3Cl)oc(=O)c12`: 15% (inactive); for `CCOc1cc2nc(-c3ccccc3SC)oc(=O)c2cc1OCC`: 5% (inactive); for `O=c1oc(-c2cccs2)nc2scc(-c3ccccc3)c12`: 55% (inactive). Consider `COc1cc2nc(-c3ccccc3SC)oc(=O)c2cc1OC`, for which the inhibition is 15% (inactive).

Consider `O=c1oc(-c2ccccc2)nc2c1oc1ccccc12`, for which the inhibition is 35% (inactive).

Regarding `O=c1oc(COc2ccccc2Cl)nc2ccccc12`, the inhibition was 10% (inactive). Consider `O=c1oc(-c2ccc(F)cc2)nc2scc(-c3cccs3)c12`, for which the inhibition is 0% (inactive).

For `COc1cc2nc(-c3ccc(C(C)(C)C)cc3)oc(=O)c2cc1OC`, the inhibition was 0% (inactive). The same measure for `CCN(CC)S(=O)(=O)c1ccc(Cl)c(-c2nc3snc(C)c3c(=O)o2)c1`: 0% (inactive). To `CCCc1nsc2nc(-c3ccccc3Cl)oc(=O)c12` belongs 15% (inactive). To `Cc1nsc2nc(-c3cc(S(=O)(=O)N4CCCC4)ccc3Cl)oc(=O)c12` belongs 65%. As for `Cc1nsc2nc(-c3cc(S(=O)(=O)N(C)C)ccc3Cl)oc(=O)c12`, the inhibition was 10% (inactive). For `Cc1nsc2nc(-c3cc(F)c(F)cc3Cl)oc(=O)c12`, the inhibition was 15% (inactive). To `COc1ccc(/C=C/c2nc3scc(-c4cccs4)c3c(=O)o2)cc1` belongs 0% (inactive); to `O=c1oc(-c2ccccc2Cl)nc2c1oc1ccccc12`, 40% (inactive). The same measure for `O=c1oc(-c2ccccc2)nc2c1oc1ccc(Cl)cc12`: 40% (inactive).

Take `Cc1nsc2nc(-c3ccc([N+](=O)[O-])cc3Cl)oc(=O)c12`: the inhibition was 10% (inactive). In the case of `O=c1oc(-c2cc3ccccc3o2)nc2ccc(Br)cc12`, the inhibition is 0% (inactive). In the case of `O=c1oc(-c2cccc(Cl)c2)nc2scc(-c3ccc(Br)cc3)c12`, the inhibition is 0% (inactive). The same measure for `O=c1oc(Cc2ccccc2)nc2scc(-c3ccccc3)c12`: 45% (inactive); for `O=c1oc(-c2cccc(Cl)c2)nc2c1cnn2-c1ccccc1`: 20% (inactive). As to `Cc1nsc2nc(-c3cc4ccccc4nc3Cl)oc(=O)c12`, the inhibition was 40% (inactive). In the case of `O=c1oc(-c2cccs2)nc2cc(Cl)ccc12`, the inhibition is 40% (inactive). To `COc1cc(-c2nc3scc(-c4ccccc4)c3c(=O)o2)cc(OC)c1OC` belongs 0% (inactive). To `Cc1ccc(-c2nc3sc(C)c(C)c3c(=O)o2)cc1` belongs 0% (inactive); to `O=C1CCC(=O)N1c1ccc(-c2nc3scc(-c4ccc(F)cc4)c3c(=O)o2)cc1`, 0% (inactive). Consider `Cc1nsc2nc(-c3ccc(Cl)cc3Cl)oc(=O)c12`, for which the inhibition is 20% (inactive). To `Cc1ccc(-c2csc3nc(-c4ccc(-c5ccccc5)cc4)oc(=O)c23)cc1` belongs 0% (inactive); to `Cc1ccc(-c2csc3nc(-c4ccc(C(C)(C)C)cc4)oc(=O)c23)cc1`, 5% (inactive).

Turning to `CCOc1cccc(-c2nc3ccc(OC(C)=O)cc3c(=O)o2)c1`, the inhibition was 5% (inactive). The same measure for `Cc1ccccc1-c1nc2scc(-c3cccs3)c2c(=O)o1`: 15% (inactive); for `COc1ccc(-c2csc3nc(-c4ccccc4C)oc(=O)c23)cc1`: 0% (inactive). Take `O=c1oc(-c2ccc(C(F)(F)F)cc2)nc2c1oc1ccc(Cl)cc12`: the inhibition was 40% (inactive). To `O=c1oc(-c2cccc(Br)c2)nc2scc(-c3ccccc3)c12` belongs 5% (inactive); to `Cc1nsc2nc(-c3ccccc3Cl)oc(=O)c12`, 0% (inactive). On to `Cc1nsc2nc(-c3sc4ccccc4c3Cl)oc(=O)c12`, for which the inhibition is 20% (inactive).

Consider `COc1cc2nc(-c3c(OC)cccc3OC)oc(=O)c2cc1OC`, for which the inhibition was 0% (inactive). To `O=c1oc(-c2ccccc2Cl)nc2c1cnn2-c1ccccc1` belongs 80%; to `CCCOc1cccc(-c2nc3cc(OC)c(OC)cc3c(=O)o2)c1`, 10% (inactive); to `O=C(Nc1cccc(-c2nc3ccccc3c(=O)o2)c1)c1ccccc1`, 50% (inactive).

Regarding `O=c1oc(-c2ccc([N+](=O)[O-])cc2)nc2c1cnn2-c1ccccc1`, the inhibition is 0% (inactive). The same measure for `Cc1nsc2nc(-c3cc(S(C)(=O)=O)ccc3Cl)oc(=O)c12`: 5% (inactive). To `COc1ccc(-c2csc3nc(-c4cccc5ccccc45)oc(=O)c23)cc1OC` belongs 5% (inactive); to `CCOc1ccc(-c2csc3nc(-c4ccccc4C)oc(=O)c23)cc1`, 5% (inactive). Regarding `O=c1oc(-c2ccco2)nc2cccc(F)c12`, the inhibition is 5% (inactive). The same measure for `O=c1oc(-c2ccc(-c3ccccc3)cc2)nc2scc(-c3ccccc3)c12`: 0% (inactive); for `O=c1oc(-c2cccc(F)c2)nc2c1cnn2-c1ccccc1`: 70%; for `COc1ccc(-c2csc3nc(-c4ccc(C)cc4)oc(=O)c23)cc1`: 0% (inactive). In the case of `CSc1ccc(Cl)c(-c2nc3snc(C)c3c(=O)o2)c1`, the inhibition was 10% (inactive). For `S=c1sc(-c2ccccc2Cl)nc2ccccc12`, the inhibition was 35% (inactive). The same measure for `COc1ccc(-c2csc3nc(-c4ccc(Cl)cc4)oc(=O)c23)cc1`: 0% (inactive). `Cc1nsc2nc(-c3cc(S(=O)(=O)N4CCCCC4)ccc3Cl)oc(=O)c12`: the inhibition was 15% (inactive). The same measure for `Cc1nsc2nc(-c3cccnc3Cl)oc(=O)c12`: 5% (inactive).

As to `CCc1nsc2nc(-c3ccccc3Cl)oc(=O)c12`, the inhibition is 20% (inactive). The same measure for `O=c1oc(-c2ccccc2F)nc2c1cnn2-c1ccccc1`: 75%; for `O=c1oc(-c2ccc(Br)cc2)nc2scc(-c3cccs3)c12`: 0% (inactive). As to `Cc1sc2nc(-c3ccc(-c4ccccc4)cc3)oc(=O)c2c1C`, the inhibition is 0% (inactive). To `Cc1nsc2nc(-c3cc(Cl)nnc3Cl)oc(=O)c12` belongs 10% (inactive); to `O=c1oc(-c2ccccc2F)nc2scc(-c3cccs3)c12`, 80%; to `O=C1OC(=O)c2cc(-c3nc4ccccc4c(=O)o3)ccc21`, 0% (inactive). For `Cc1noc2nc(-c3ccccc3Cl)oc(=O)c12`, the inhibition was 5% (inactive). The same measure for `O=c1oc(-c2cccs2)nc2c1cnn2-c1ccccc1`: 70%; for `COc1ccc(-c2csc3nc(Cc4ccccc4)oc(=O)c23)cc1OC`: 5% (inactive). To `O=c1oc(-c2ccc(Br)cc2)nc2c1cnn2-c1ccccc1` belongs 0% (inactive); to `CC(C)(C)c1ccc(-c2nc3scc(-c4ccccc4)c3c(=O)o2)cc1`, 0% (inactive). With `Cc1nsc2nc(-c3cc([N+](=O)[O-])ccc3Cl)oc(=O)c12`, the inhibition was 15% (inactive). On to `CC(=O)Oc1ccc2nc(-c3ccccc3)oc(=O)c2c1`, for which the inhibition was 0% (inactive). Consider `O=C1CCC(=O)N1c1ccc(-c2nc3scc(-c4ccccc4)c3c(=O)o2)cc1`, for which the inhibition was 65%. To `CCOc1ccc(-c2csc3nc(-c4ccc(F)cc4)oc(=O)c23)cc1` belongs 0% (inactive); to `COCc1nsc2nc(-c3ccccc3Cl)oc(=O)c12`, 0% (inactive); to `Cc1nsc2nc(-c3ccc(F)cc3Cl)oc(=O)c12`, 25% (inactive). For the molecule `Cc1nsc2nc(-c3cc(Br)cnc3Cl)oc(=O)c12`, the inhibition is 10% (inactive). The same measure for `O=c1oc(/C=C/c2ccccc2)nc2scc(-c3cccs3)c12`: 10% (inactive); for `CC(C)(C)c1ccc(-c2nc3sc4c(c3c(=O)o2)CCCC4)cc1`: 0% (inactive). The same measure for `COc1ccc(-c2csc3nc(-c4ccc(F)cc4)oc(=O)c23)cc1`: 0% (inactive); for `O=c1oc(-c2ccccc2)nc2c1cnn2-c1ccccc1`: 70%; for `O=c1oc(-c2ccc(F)cc2)nc2scc(-c3ccc(Br)cc3)c12`: 0% (inactive). For `CCc1nc2sc(-c3ccccc3)c(-c3ccccc3)c2c(=O)o1`, the inhibition was 55% (inactive). To `CC(C)c1nsc2nc(-c3ccccc3Cl)oc(=O)c12` belongs 0% (inactive); to `CCOc1ccc(-c2csc3nc(-c4ccccc4OC)oc(=O)c23)cc1`, 35% (inactive); to `Cc1ccc2nc(-c3ccccc3Cl)oc(=O)c2c1`, 15% (inactive). The same measure for `CC(C)(C)c1nc2scc(-c3ccccc3)c2c(=O)o1`: 70%.
